Experimental data reported in ChEMBL document CHEMBL4483862, “Open-source discovery of chemical leads for next-generation chemoprotective antimalarials” (2018).

Test system: Plasmodium berghei
Assay: Luciferase/luciferin-expressing antifolate-resistant parasites were used to infect a culture of HepG2 cells that were pre-incubated with compounds. Infected hepatocytes emit light due to the luciferase reaction. Assay results are presented as the percent inhibition of light emission compared to control. […]
Format: functional
Conditions: sporozoite; for IC90: read-out: LUCIFERASE INFECTION ASSAY - IC90
[1] = read-out: LUCIFERASE INFECTION ASSAY - IC50

Row | Compound | IC90 | other results
1 | CCc1c(C(=O)Nc2nc(C)cs2)cnn1-c1cccc(Cl)c1 | 1.14 µM | IC50 (HEPG2TOX_HILL_SLOPE 7.81, HEPG2TOX_R_SQUARED 0.827, PBLUC_HILL_SLOPE 1.59, PBLUC_R_SQUARED 0.7, read-out: LUCIFERASE INFECTION ASSAY - IC50): 0.286 µM
2 | O=C(c1cccs1)N1[C@@H]2CC[C@@H](C2)[C@H]1c1nc2cccc(OCc3ccc(F)cc3)c2[nH]1 | > 10 µM | IC50 (FFLUC_HILL_SLOPE 9.4, FFLUC_R_SQUARED 0.0879, PBLUC_HILL_SLOPE 2.58, PBLUC_R_SQUARED 0.515, read-out: LUCIFERASE INFECTION ASSAY - IC50): 7.57 µM
3 | N#CC(Cc1cccc([N+](=O)[O-])c1)(c1ccccc1)c1ccccc1 | > 10 µM | IC50 (HEPG2TOX_HILL_SLOPE 5.53, HEPG2TOX_R_SQUARED 0.223, PBLUC_HILL_SLOPE 1.93, PBLUC_R_SQUARED 0.0999, read-out: LUCIFERASE INFECTION ASSAY - IC50): > 10 µM
4 | CCCCNC(=O)Nc1nc(-c2ccccc2)cn1/N=C/c1ccccc1 | > 10 µM | IC50 (HEPG2TOX_HILL_SLOPE 8.27, HEPG2TOX_R_SQUARED 0.417, read-out: LUCIFERASE INFECTION ASSAY - IC50): > 10 µM
5 | Cc1sc2nc(CN3CCCC3)nc(Oc3ccc4ccncc4c3)c2c1C | > 10 µM | IC50 [1]: 9.51 µM
6 | Fc1cccc(-c2cc3c(Nc4ccc5c(c4)OCCO5)nccc3[nH]2)c1 | 7.25 µM | IC50 (HEPG2TOX_HILL_SLOPE 14.3, HEPG2TOX_R_SQUARED 0.604, PBLUC_HILL_SLOPE 1.45, PBLUC_R_SQUARED 0.727, read-out: LUCIFERASE INFECTION ASSAY - IC50): 1.59 µM
7 | Cc1cnc(-c2nc(-c3ccccc3)c3n2CCN(Cc2ccc(C4CCCCO4)s2)C3)cn1 (centres undefined) | > 7 µM | IC50 (PBLUC_HILL_SLOPE 1.74, PBLUC_R_SQUARED 0.822, read-out: LUCIFERASE INFECTION ASSAY - IC50): 3.61 µM
8 | Cc1ccc2cc(CN(CC(C)C)C(=O)c3cccc(Cl)c3)c(=O)[nH]c2c1 | 4.61 µM | IC50 (FFLUC_HILL_SLOPE 2.55, FFLUC_R_SQUARED 0.111, HEPG2TOX_HILL_SLOPE 13.7, HEPG2TOX_R_SQUARED 0.575, PBLUC_HILL_SLOPE 6.1, PBLUC_R_SQUARED 0.569, read-out: LUCIFERASE INFECTION ASSAY - IC50): 3.21 µM
9 | Cc1ccccc1Sc1ccc(NC(=O)c2ccc(F)cc2)cc1C#N | > 9.11 µM | IC50 [1]: > 9.11 µM
10 | Cc1ccc2nc(NC(=O)COCc3ccccc3)c(C(=O)NC3CCCC3)n2c1 | > 8.12 µM | IC50 (PBLUC_HILL_SLOPE 14.3, PBLUC_R_SQUARED 0.563, read-out: LUCIFERASE INFECTION ASSAY - IC50): 7.54 µM
11 | CCCc1cc(=O)n(-c2ccc(Cl)cc2)[nH]1 | 5.8 µM | IC50 (FFLUC_HILL_SLOPE 16.5, FFLUC_R_SQUARED 0.266, HEPG2TOX_HILL_SLOPE 6.52, HEPG2TOX_R_SQUARED 0.85, PBLUC_HILL_SLOPE 14.3, PBLUC_R_SQUARED 0.712, read-out: LUCIFERASE INFECTION ASSAY - IC50): 4.97 µM
12 | CCOC(=O)/C=c1\s/c(=C\c2ccc(Cl)cc2)c(=O)n1CC(=O)c1ccc(Cl)cc1 | > 10 µM | IC50 [1]: > 10 µM
13 | CC1CCc2nc3ccccc3c(C(=O)OC(C)C(=O)NCCC3=CCCCC3)c2C1 (centres undefined) | > 10 µM | IC50 [1]: > 10 µM
14 | CNc1nc2cnc(Nc3cccc(Cl)c3)cc2n1Cc1ccco1 | > 10 µM | IC50 (HEPG2TOX_HILL_SLOPE 1.66, HEPG2TOX_R_SQUARED 0.976, PBLUC_HILL_SLOPE 2.05, PBLUC_R_SQUARED 0.683, read-out: LUCIFERASE INFECTION ASSAY - IC50): 3.63 µM
15 | O=S(=O)(Nc1ccc(Oc2cc(C(F)(F)F)cc(C(F)(F)F)c2)cc1)c1cc(C(F)(F)F)cc(C(F)(F)F)c1 | 3.81 µM | IC50 (FFLUC_HILL_SLOPE 18.8, FFLUC_R_SQUARED 0.264, HEPG2TOX_HILL_SLOPE 15.6, HEPG2TOX_R_SQUARED 0.875, PBLUC_HILL_SLOPE 191, PBLUC_R_SQUARED 0.155, read-out: LUCIFERASE INFECTION ASSAY - IC50): 3.76 µM
16 | NC(=NNC(=S)Nc1ccc(Cl)cc1)c1ccccn1 | > 10.8 µM | IC50 (FFLUC_HILL_SLOPE 4.43, FFLUC_R_SQUARED 0.823, PBLUC_HILL_SLOPE 0.754, PBLUC_R_SQUARED 0.703, read-out: LUCIFERASE INFECTION ASSAY - IC50): 1.71 µM
17 | O=C(Nc1ccc(S(=O)(=O)NCCCN2CCOCC2)cc1)c1csc(-c2ccsc2)n1 | > 10 µM | IC50 (PBLUC_HILL_SLOPE 27, PBLUC_R_SQUARED 0.0565, read-out: LUCIFERASE INFECTION ASSAY - IC50): 9.66 µM
18 | CCc1ccc(CC)c(-c2csc(N/C(C)=C(\C#N)C(N)=O)n2)c1 | > 10 µM | IC50 (HEPG2TOX_HILL_SLOPE 12.4, HEPG2TOX_R_SQUARED 0.749, PBLUC_HILL_SLOPE 4.61, PBLUC_R_SQUARED 0.122, read-out: LUCIFERASE INFECTION ASSAY - IC50): 8.16 µM
19 | CN(Cc1ccccc1N1CCCCC1)C(=O)c1ccc(NC(=O)C2CC2)cc1 | 3.37 µM | IC50 [1]: 2.9 µM

Row | Compound | IC90 | other results
20 | CCCNc1nccn2c(-c3ccc(C(=O)NC4CC4)cc3)cnc12 | 7.31 µM | IC50 (HEPG2TOX_HILL_SLOPE 2.37, HEPG2TOX_R_SQUARED 0.851, PBLUC_HILL_SLOPE 7.04, PBLUC_R_SQUARED 0.366, read-out: LUCIFERASE INFECTION ASSAY - IC50): 5.35 µM
21 | CC(=O)Nc1ccc(Nc2cc3[nH]c(-c4cccc(F)c4)cc3cn2)cc1 | 9.16 µM | IC50 (PBLUC_HILL_SLOPE 3.2, PBLUC_R_SQUARED 0.299, read-out: LUCIFERASE INFECTION ASSAY - IC50): 4.6 µM
22 | Cc1nc(C2(NC(=O)COc3ccc4ccccc4c3)CCCCC2)no1 | > 10 µM | IC50 (FFLUC_HILL_SLOPE 2.65, FFLUC_R_SQUARED 0.0928, read-out: LUCIFERASE INFECTION ASSAY - IC50): > 10 µM
23 | Cc1cnc(NC(=O)C2CCN(S(=O)(=O)c3ccc(Cl)cc3)CC2)s1 | 3.13 µM | IC50 (PBLUC_HILL_SLOPE 19, PBLUC_R_SQUARED 0.695, read-out: LUCIFERASE INFECTION ASSAY - IC50): 2.79 µM
24 | CCn1c(-c2ccccc2)c(C(=O)Cn2ncc(Cl)c(Cl)c2=O)c2ccccc21 | > 10 µM | IC50 (FFLUC_HILL_SLOPE 22, FFLUC_R_SQUARED 0.674, read-out: LUCIFERASE INFECTION ASSAY - IC50): > 10 µM
25 | O=C1C=CC(=O)N1c1cccc(Br)c1 | > 13.1 µM | IC50 (PBLUC_HILL_SLOPE 13.6, PBLUC_R_SQUARED 0.314, read-out: LUCIFERASE INFECTION ASSAY - IC50): 12.9 µM
26 | O=C(NNC(=S)Nc1cccc(C(F)(F)F)c1)c1[nH]c2ccccc2c1-c1ccccc1 | 2.73 µM | IC50 (HEPG2TOX_HILL_SLOPE 2.69, HEPG2TOX_R_SQUARED 0.963, PBLUC_HILL_SLOPE 11.7, PBLUC_R_SQUARED 0.673, read-out: LUCIFERASE INFECTION ASSAY - IC50): 2.27 µM
27 | Cc1cc(-c2nc(=O)c3ccccc3[nH]2)c(C)n1CC(C)C | 4.1 µM | IC50 (PBLUC_HILL_SLOPE 3.39, PBLUC_R_SQUARED 0.354, read-out: LUCIFERASE INFECTION ASSAY - IC50): 2.15 µM
28 | CNc1snc(C)c1C(=O)NC(C)c1ccc(C(C)C)cc1 (centres undefined) | 2.91 µM | IC50 (HEPG2TOX_HILL_SLOPE 0.648, HEPG2TOX_R_SQUARED 0.871, PBLUC_HILL_SLOPE 1.92, PBLUC_R_SQUARED 0.818, read-out: LUCIFERASE INFECTION ASSAY - IC50): 0.93 µM
29 | COc1cccc(C(=O)Nc2nc3ccccn3c2C(=O)NC2CCCCC2)c1 | 2.95 µM | IC50 (HEPG2TOX_HILL_SLOPE 2.26, HEPG2TOX_R_SQUARED 0.97, PBLUC_HILL_SLOPE 3.61, PBLUC_R_SQUARED 0.707, read-out: LUCIFERASE INFECTION ASSAY - IC50): 1.61 µM
30 | CCN(CC)S(=O)(=O)c1ccc(OC(C)C)c(NC(=O)C2=CN3CCS(=O)(=O)N=C3C=C2)c1 | 4.52 µM | IC50 (PBLUC_HILL_SLOPE 11.8, PBLUC_R_SQUARED 0.349, read-out: LUCIFERASE INFECTION ASSAY - IC50): 3.75 µM
31 | CC1Cc2cc(S(N)(=O)=O)ccc2N1C(=O)CN1CCCN(c2ccc(C(F)(F)F)cn2)CC1 (centres undefined) | > 10 µM | IC50 (HEPG2TOX_HILL_SLOPE 3.49, HEPG2TOX_R_SQUARED 0.873, read-out: LUCIFERASE INFECTION ASSAY - IC50): > 10 µM
32 | Cc1cnc(C(=O)NNC(=O)CC23CC4CC(CC(C4)C2)C3)cn1 | 9.85 µM | IC50 (HEPG2TOX_HILL_SLOPE 1.28, HEPG2TOX_R_SQUARED 0.86, PBLUC_HILL_SLOPE 19.8, PBLUC_R_SQUARED 0.188, read-out: LUCIFERASE INFECTION ASSAY - IC50): 8.81 µM
33 | O=C(Nc1ccc2nc(Cc3ccccc3)nn2c1)Nc1cccs1 | > 3.33 µM | IC50 (PBLUC_HILL_SLOPE 0.558, PBLUC_R_SQUARED 0.579, read-out: LUCIFERASE INFECTION ASSAY - IC50): 0.969 µM
34 | Cc1cc2oc(=O)cc(Cn3cnc4sc(C)c(-c5ccccc5)c4c3=O)c2cc1Cl | > 10 µM | IC50 (FFLUC_HILL_SLOPE 8.53, FFLUC_R_SQUARED 0.709, PBLUC_HILL_SLOPE 1.77, PBLUC_R_SQUARED 0.508, read-out: LUCIFERASE INFECTION ASSAY - IC50): 4.81 µM
35 | CSc1sc(-c2ccnc(SCc3cccc(F)c3)n2)c2c1C(=O)CCC2 | > 7.92 µM | IC50 [1]: > 7.92 µM
36 | CCn1c2ccccc2c2cc(NC(=O)COC(=O)C3CSC4(c5ccc(F)cc5)CCC(=O)N34)ccc21 (centres undefined) | > 10 µM | IC50 (HEPG2TOX_HILL_SLOPE 7.81, HEPG2TOX_R_SQUARED 0.779, read-out: LUCIFERASE INFECTION ASSAY - IC50): > 10 µM
37 | O=S(=O)(c1cc(C(F)(F)F)cc(C(F)(F)F)c1)N1CCc2c([nH]c3ccccc23)C1C(F)(F)F (centres undefined) | > 6.39 µM | IC50 (PBLUC_HILL_SLOPE 1.65, PBLUC_R_SQUARED 0.099, read-out: LUCIFERASE INFECTION ASSAY - IC50): 5.02 µM
